Results from patent US11617366B2, “Solvents for agricultural applications and pesticide formulations” (Dow Global Technologies LLC, priority 2017, dated 2023).
Like-named read-outs stand apart in the source and are kept apart here.

Test: Solubility of pesticide powders in solvents, 2% stepwise increments
Conditions: for Dissolving power: compared with comparative solvents DMSO and DMAA810, for each of the active ingredients evaluated
Experimental: The solubility of various pesticides in these solvents or solvent components are evaluated.

[1] = solvent DEAC (N,N-diethyl acetamide), last concentration before powder not dissolved, 2% steps, no more than 2% lower than actual solubility
[2] = solvent DMAA810, last concentration before powder not dissolved, 2% steps, no more than 2% lower than actual solubility
[3] = solvent DMPA (N,N-dimethyl propanamide), last concentration before powder not dissolved, 2% steps, no more than 2% lower than actual solubility
[4] = solvent DMSO, last concentration before powder not dissolved, 2% steps, no more than 2% lower than actual solubility

Compound | Solubility in DEAC [1] | Solubility in DMAA810 [2] | Solubility in DMPA [3] | Solubility in DMSO [4] | Dissolving power | Solubility in DEAC | Solubility in DMPA | Solubility in DMAA810 | Solubility in DMSO
Abamectin | 50 weight % | 38 weight % | 51 weight % | 21 weight % |  |  |  |  | 
CCC(=O)N(C)C [DMPA, N,N-dimethyl propanamide] |  |  |  |  | stronger |  |  |  | 
CC(C)(C)C(O)(CCc1ccc(Cl)cc1)Cn1cncn1 (stereo not drawn) [Tebuconazole] |  | 37 weight % |  | 32 weight % |  | 51 weight % | 54 weight % |  | 
Cc1c(COC(=O)[C@@H]2[C@H](/C=C(\Cl)C(F)(F)F)C2(C)C)cccc1-c1ccccc1 (racemic) [Bifenthrin] | 50 weight % | 33 weight % | 47 weight % | 7 weight % |  |  |  |  | 
CCN(CC)C(C)=O [DEAC, N,N-diethyl acetamide] |  |  |  |  | stronger |  |  |  | 
COC(=O)N(OC)c1ccccc1COc1ccn(-c2ccc(Cl)cc2)n1 [Pyraclostrobin] | 54 weight % | 42 weight % | 63 weight % | 40 weight % |  |  |  |  | 
CCCCC(C#N)(Cn1cncn1)c1ccc(Cl)cc1 (stereo not drawn) [Myclobutanil] | 57 weight % | 42 weight % | 58 weight % | 57 weight % |  |  |  |  | 
CC(C)N1C(=O)N(c2ccccc2)CS/C1=N\C(C)(C)C [Buprofezin] |  |  |  |  |  | 31 weight % | 33 weight % | 22 weight % | 1 weight %
CC(C)(C)C(=O)C(Oc1ccc(Cl)cc1)n1cncn1 (stereo not drawn) [Triazolone] | 54 weight % | 39 weight % | 58 weight % | 43 weight % |  |  |  |  | 
